Measurements from US4268664A, “Process for the preparation of 1-N-isoseryl- or 1-N-(L-4-amino-2-hydroxybutyryl)-3',4'-dideoxykanamycin B and intermediates thereof” (Zaidan Hojin Biseibutsu Kagaku Kenkyu Kai, priority 1978, dated 1981).
Values after ≈ are worked out from the molar mass of the structure shown. Like-named read-outs stand apart in the source and are kept apart here.

Assays:
Type in all cases: cell-based
[1] = test system: Sal. enteritidis No. 11(T-okai); test: Antibacterial activity (MIC), serial dilution method; settings: Salmonella enterica, nutrient agar, 37° C., 20 hours, read-out: MIC
[2] = test system: B. anthracis No. 119; test: microbe, parasite or virus in culture; settings: Bacillus anthracis, NO.119, 20 h
[3] = test system: Serra. marcescens No. 2; test: Antibacterial activity (MIC), serial dilution method; settings: Serratia marcescens, nutrient agar, 37° C., 20 hours
[4] = test system: Pro. morganii K-ono; test: as above; settings: Morganella morganii; nutrient agar, 37° C., 20 hours
[5] = test system: E. coli JR 66/W 677(A-20683); test: as above; settings: Escherichia coli; nutrient agar, 37° C., 20 hours; read-out: MIC
[6] = test system: Sta. epidermidis 109; test: as above; settings: Staphylococcus epidermidis, nutrient agar, 37° C., 20 hours
[7] = test system: Sta. epidermidis ATCC 14990; test: as above; settings: Staphylococcus epidermidis, ATCC14990; nutrient agar, 37° C., 20 hours
[8] = test system: Sta. aureus N-0089; test: as above; settings: Staphylococcus aureus, N0089; nutrient agar, 37° C., 20 hours
[9] = test system: Pro. rettgelli J-0026; test: as above; settings: nutrient agar, 37° C., 20 hours; read-out: MIC
[10] = test system: Kleb. pneumoniae 22# 3038 (A-20680); test: as above; settings: Klebsiella pneumoniae
[11] = test system: Sal. typhi 0-901-W; test: as above; settings: Salmonella enterica, 20 h
[12] = test system: Ps. aeruginosa IAM-1007; test: as above; settings: Pseudomonas aeruginosa, IAM1007; nutrient agar, 37° C., 20 hours; read-out: MIC
[13] = test system: E. coli A-0001; test: as above; settings: Escherichia coli, A0001; nutrient agar, 37° C., 20 hours
[14] = test system: B. subtilis ATCC 6633; test: as above; settings: Bacillus subtilis, ATCC6633; nutrient agar, 37° C., 20 hours
[15] = test system: Pro. vulgaris OX19; test: as above; settings: Proteus vulgaris, nutrient agar, 37° C., 20 hours
[16] = test system: Sta. aureus ApO-1; test: as above; settings: Staphylococcus aureus, APO1; nutrient agar, 37° C., 20 hours
[17] = test system: Shigella dysenteriae Shigae; test: microbe, parasite or virus in culture; settings: 20 h
[18] = test system: E. coli W 677(A-20684); test: Antibacterial activity (MIC), serial dilution method; settings: Escherichia coli; nutrient agar, 37° C., 20 hours
Description: (§1) Antimicrobial spectra of 1-N-(L-isoseryl)- and 1-N-(L-4-amino-2-hydroxybutyryl)-3',4'-dideoxy-3',4'-didehydrokanamycin B (1-AHP-eno-DKB and 1-AHB-eno-DKB) are shown in the following table together with that of 1-N-(L-4-amino-2-hydroxybutyryl)-3',4'-dideoxykanamycin B (1-AHB-DKB).
(§2) The minimum inhibitory concentrations (mcg/ml) of the compounds tested against various microorganisms were determined according to a serial dilution method using nutrient agar medium at 37° C., the estimation being effected after 20 hours-incubation.

[19] = test system: Sal. species D-0001; test: as above; settings: nutrient agar, 37° C., 20 hours
Description: as §1, §2

[20] = test system: Sal. species D-0006; test: as above; settings: nutrient agar, 37° C., 20 hours
Description: as §1, §2

[21] = test system: Sta. aureus Smith S-424; test: as above; settings: Staphylococcus aureus, SMITHS424; nutrient agar, 37° C., 20 hours
[22] = test system: Sta. aureus No. 26; test: as above; settings: Staphylococcus aureus, nutrient agar, 37° C., 20 hours
[23] = test system: Pro. vulgaris J-0001; test: as above; settings: Proteus vulgaris, J0001; nutrient agar, 37° C., 20 hours; read-out: MIC
[24] = test system: Serra. marcescens No. 1; test: as above; settings: Serratia marcescens, nutrient agar, 37° C., 20 hours
[25] = test system: various microorganisms; test: antimicrobial activity (in words)
Description: as §2

[26] = test system: Ps. aeruginosa M-0032; test: Antibacterial activity (MIC), serial dilution method; settings: Pseudomonas aeruginosa, M0032; nutrient agar, 37° C., 20 hours; read-out: MIC
[27] = test system: Sal. typhimurium LT-2; test: as above; settings: Salmonella enterica, nutrient agar, 37° C., 20 hours, read-out: MIC
[28] = test system: Ps. aeruginosa M-0148; test: as above; settings: Pseudomonas aeruginosa
[29] = test system: Str. faecalis ATCC 8043; test: as above; settings: Enterococcus faecalis, ATCC8043; nutrient agar, 37° C., 20 hours
[30] = test system: E. coli No. 29; test: as above; settings: Escherichia coli, nutrient agar, 37° C., 20 hours
[31] = test system: E. coli A-0003; test: as above; settings: Escherichia coli, A0003; nutrient agar, 37° C., 20 hours
[32] = test system: Ps. aeruginosa E-2; test: as above; settings: Pseudomonas aeruginosa, E2; nutrient agar, 37° C., 20 hours; read-out: MIC
[33] = test system: Ps. aeruginosa M-0002; test: as above; settings: Pseudomonas aeruginosa
[34] = test system: Ps. aeruginosa IID 1210 (IFO 3455); test: as above; settings: Pseudomonas aeruginosa; nutrient agar, 37° C., 20 hours; read-out: MIC
[35] = test system: Ps. aeruginosa NC-5; test: as above; settings: Pseudomonas aeruginosa, NC5; nutrient agar, 37° C., 20 hours; read-out: MIC
[36] = test system: Serra. marcescens I-0043; test: as above; settings: Serratia marcescens
[37] = test system: Sta. aureus Rosenbach FDA 209-P JC-1; test: as above; settings: Staphylococcus aureus, FDA209; nutrient agar, 37° C., 20 hours
[38] = test system: Kleb. pneumoniae; test: as above; settings: Klebsiella pneumoniae
[39] = test system: E. coli (M) Cast. & Chalm.NIHJ JC-2; test: as above; settings: Escherichia coli, NIHJJC2; nutrient agar, 37° C., 20 hours; read-out: MIC
[40] = test system: Pro. mirabilis J-0010; test: as above; settings: Proteus mirabilis, J0010; nutrient agar, 37° C., 20 hours; read-out: MIC
[41] = test system: Sal. species D-0029; test: as above; settings: nutrient agar, 37° C., 20 hours
Description: as §1, §2

[42] = nutrient agar, 37° C., 20 hours, read-out: MIC

| Structure (SMILES) | MIC [1] [µg/mL] | MIC [2] [µg/mL] | MIC [3] [µg/mL] | MIC [4] [µg/mL] | MIC [5] [µg/mL] | MIC [6] [µg/mL] | MIC [7] [µg/mL] | MIC [8] [µg/mL] | MIC [9] [µg/mL] | MIC [11] [µg/mL] | MIC [12] [µg/mL] | MIC [13] [µg/mL] | MIC [14] [µg/mL] | MIC [15] [µg/mL] | MIC [16] [µg/mL] | MIC [17] [µg/mL] | MIC [18] [µg/mL] | MIC [19] [µg/mL] | MIC [20] [µg/mL] | MIC [21] [µg/mL] | other results |
| --- | --- | --- | --- | --- | --- | --- | --- | --- | --- | --- | --- | --- | --- | --- | --- | --- | --- | --- | --- | --- | --- |
| NCCC(O)C(=O)NC1CC(N)C(OC2OC(CN)C=CC2N)C(O)C1OC1OC(CO)C(O)C(N)C1O [1-AHB-eno-DKB, 1-N-(L-4-amino-2-hydroxybutyryl)-3',4'-dideoxy-3',4'-didehydrokanamycin B] | 1.56 (≈ 2.83 µM) | 0.1 (≈ 0.182 µM) | 6.25 (≈ 11.4 µM) | 1.56 (≈ 2.83 µM) | 3.13 (≈ 5.68 µM) | 0.2 (≈ 0.363 µM) | 0.1 (≈ 0.182 µM) | 0.2 (≈ 0.363 µM) | 6.25 (≈ 11.4 µM) | 0.78 (≈ 1.42 µM) | 1.56 (≈ 2.83 µM) | 3.13 (≈ 5.68 µM) | 0.2 (≈ 0.363 µM) | 3.13 (≈ 5.68 µM) | 0.39 (≈ 0.708 µM) | 0.78 (≈ 1.42 µM) | 0.78 (≈ 1.42 µM) | 3.13 (≈ 5.68 µM) | 1.56 (≈ 2.83 µM) | 0.2 (≈ 0.363 µM) | MIC [10, 42]: 1.56 µg/mL (≈ 2.83 µM); MIC [22]: 0.78 µg/mL (≈ 1.42 µM); MIC [23]: 1.56 µg/mL (≈ 2.83 µM); MIC [24]: 6.25 µg/mL (≈ 11.4 µM); antimicrobial activity [25]: high antimicrobial activity; MIC [26]: 12.5 µg/mL (≈ 22.7 µM); MIC [27]: 1.56 µg/mL (≈ 2.83 µM); MIC ([28]; M0148, nutrient agar, 37° C., 20 hours, read-out: MIC): 3.13 µg/mL (≈ 5.68 µM); MIC [29]: 50 µg/mL (≈ 90.8 µM); MIC [30]: 3.13 µg/mL (≈ 5.68 µM); MIC [31]: 3.13 µg/mL (≈ 5.68 µM); MIC [32]: 3.13 µg/mL (≈ 5.68 µM); MIC ([33]; M0002, nutrient agar, 37° C., 20 hours, read-out: MIC): 3.13 µg/mL (≈ 5.68 µM); MIC [34]: 6.25 µg/mL (≈ 11.4 µM); MIC [35]: 6.25 µg/mL (≈ 11.4 µM); MIC ([36]; I0043, nutrient agar, 37° C., 20 hours, read-out: MIC): 1.56 µg/mL (≈ 2.83 µM); MIC [37]: 0.1 µg/mL (≈ 0.182 µM); MIC [38, 42]: 1.56 µg/mL (≈ 2.83 µM); MIC [39]: 3.13 µg/mL (≈ 5.68 µM); MIC [40]: 1.56 µg/mL (≈ 2.83 µM) |
| NCC1C=CC(N)C(OC2C(N)CC(NC(=O)C(O)CN)C(OC3OC(CO)C(O)C(N)C3O)C2O)O1 [1-AHP-eno-DKB, 1-N-(L-isoseryl)-3',4'-dideoxy-3',4'-didehydrokanamycin B] | 3.13 (≈ 5.83 µM) | 0.2 (≈ 0.373 µM) | 3.13 (≈ 5.83 µM) | 3.13 (≈ 5.83 µM) | 3.13 (≈ 5.83 µM) | 0.2 (≈ 0.373 µM) | 0.2 (≈ 0.373 µM) | 0.39 (≈ 0.727 µM) | 25 (≈ 46.6 µM) | 1.56 (≈ 2.91 µM) | 0.78 (≈ 1.45 µM) | 6.25 (≈ 11.6 µM) | 0.2 (≈ 0.373 µM) | 3.13 (≈ 5.83 µM) | 0.78 (≈ 1.45 µM) | 1.56 (≈ 2.91 µM) | 0.78 (≈ 1.45 µM) | 6.25 (≈ 11.6 µM) | 6.25 (≈ 11.6 µM) | 0.39 (≈ 0.727 µM) | MIC ([10]; 20 h): 1.56 µg/mL (≈ 2.91 µM); MIC [41]: 6.25 µg/mL (≈ 11.6 µM); MIC [22]: 0.39 µg/mL (≈ 0.727 µM); MIC [23]: 3.13 µg/mL (≈ 5.83 µM); MIC [24]: 3.13 µg/mL (≈ 5.83 µM); MIC [26]: 6.25 µg/mL (≈ 11.6 µM); MIC [27]: 3.13 µg/mL (≈ 5.83 µM); MIC ([28]; M0148, 20 h): 1.56 µg/mL (≈ 2.91 µM); MIC [29]: 50 µg/mL (≈ 93.2 µM); MIC [30]: 6.25 µg/mL (≈ 11.6 µM); MIC [31]: 6.25 µg/mL (≈ 11.6 µM); MIC [32]: 3.13 µg/mL (≈ 5.83 µM); MIC ([33]; M0002, 20 h): 1.56 µg/mL (≈ 2.91 µM); MIC [34]: 3.13 µg/mL (≈ 5.83 µM); MIC [35]: 3.13 µg/mL (≈ 5.83 µM); MIC ([36]; I0043, 20 h): 1.56 µg/mL (≈ 2.91 µM); MIC [37]: 0.1 µg/mL (≈ 0.186 µM); MIC ([38]; 20 h): 1.56 µg/mL (≈ 2.91 µM); MIC [39]: 3.13 µg/mL (≈ 5.83 µM); MIC [40]: 3.13 µg/mL (≈ 5.83 µM) |
